From patent US10105365B2, “Solid antiviral dosage forms” (AbbVie Inc., priority 2014, dated 2018)

Columns and labels:
[1] = Human pharmacokinetic study, Example 5 Arm II (multiple dose, crossover); assay type: in vivo; details: Example 5 Arm II; for β, geometric mean / half-life / AUC / concentration at 24 h / Cmax / Tmax: multiple dose 14 days, non-fasting, N = 63; for half-life / AUC / concentration at 24 h / Cmax / Tmax: both sexes, human, blood, oral; for AUC: read-out: AUC24, geometric mean; for concentration at 24 h: read-out: C24, geometric mean; for Cmax: read-out: Cmax, geometric mean; for Tmax: read-out: Tmax, first value (geometric mean)
Outline: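 Multiple-dose two-period randomized crossover in 66 healthy adults: oral dosing for 14 days per period, ≥10-day separation, taken with ~240 mL water about 30 min after a standardized breakfast. Serial blood samples for pharmacokinetics were collected 72 hours after dosing in each period.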

[2] = Human pharmacokinetic study, Example 4 Arm III (14-day multiple dose, steady state); assay type: in vivo
[3] = Human pharmacokinetic study, Example 5 Arm I (single dose, replicated crossover); assay type: in vivo; details: both sexes, human, oral, single dose, non-fasting; for half-life / AUC(0-t) / AUC(0-inf) / Tmax: blood; for Cmax: in vivo
Outline: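 Single-dose, randomized, four-period, two-sequence replicated crossover in 88 healthy adults, periods separated by at least 10 days. Oral dosing in the morning with about 240 mL water, about 30 min after starting a standardized breakfast. Serial blood samples collected over 72 h after each dose.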

[4] = Sink Conditions dissolution testing of Formulation C5-12; assay type: physicochemical; details: N = 6
Experimental: The release profiles of Formulation C5-12 of Example 1 were evaluated in a Sink Conditions dissolution study. The study was conducted in 900 mL of dissolution medium using a standard USP dissolution Apparatus 2 (paddle) operating at 100 RPM at 37±0.5° C. The dissolution medium was a 0.05 M sodium phosphate buffer pH 6.8 with 15 mM cTAB as a surfactant.

[5] = Permeability (general statement); assay type: in vitro ADME; details: free acid of Compound 4; gastrointestinal tract
[6] = Solubility (general statement); assay type: physicochemical
[7] = Human pharmacokinetic study, Example 4 Arm II (single dose, crossover); assay type: in vivo; details: both sexes, human, oral, Example 4 Arm II, single dose, non-fasting, N = 13; for half-life / AUC(0-t) / AUC(0-inf) / Tmax: blood; for AUC(0-t): read-out: AUCt, geometric mean; for AUC(0-inf): read-out: AUC∞, geometric mean; for Tmax: read-out: Tmax; for concentration at 24 h / Cmax: in vivo; for concentration at 24 h: read-out: C24, geometric mean; for Cmax: read-out: Cmax, geometric mean
Outline: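 Healthy adult men and women (N=30 across Arms I and II) randomised to crossover regimen sequences; single oral dose with ~240 mL water ~30 min after a standardised breakfast; one regimen given an evening dose after a snack.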

[8] = Regimen B (reference regimen): two Triple Tablets + one Single Tablet morning, one Single Tablet evening
[9] = 3 film-coated Formulation C5-12 tablets daily, Regimen A (C5-12): three film-coated Formulation C5-12 tablets daily
[10] = Formulation C5-12, Day 14 versus Day 1
[11] = human, in vivo, oral, 3 Formulation C5-12 tablets daily, three Formulation C5-12 tablets daily for 14 days, non-fasting, Day 14, N = 14
[12] = three Formulation C5-12 tablets daily for 14 days, non-fasting, Day 14, N = 14
[13] = 4 hours, pH 6.8 buffer, 15 mM cTAB
[14] = 6 hours, pH 6.8 buffer, 15 mM cTAB
[15] = 8 hours, pH 6.8 buffer, 15 mM cTAB
[16] = 12 hours, pH 6.8 buffer, 15 mM cTAB
[17] = 16 hours, pH 6.8 buffer, 15 mM cTAB
[18] = 24 hours, pH 6.8 buffer, 15 mM cTAB
[19] = 30 hours, pH 6.8 buffer, 15 mM cTAB
[20] = 3 Formulation C5-12 tablets, Regimen E (C5-12): three Formulation C5-12 tablets in the morning
[21] = Regimen A (reference regimen): two Triple Tablets + one Single Tablet morning, one Single Tablet evening

SMILES: COc1c(-c2ccc3cc(NS(C)(=O)=O)ccc3c2)cc(-n2ccc(=O)[nH]c2=O)cc1C(C)(C)C [Compound 4, N-(6-(3-tert-butyl-5-(2,4-dioxo-3,4-dihydropyrimidin-1(2H)-yl)-2-methoxyphenyl)naphthalen-2-yl)methanesulfonamide]
- β, geometric mean ([1]; Regimen A (C5-12): three film-coated Formulation C5-12 tablets daily): 0.104 h⁻¹
- β, geometric mean [1, 8]: 0.122 h⁻¹
- Exposures (Cmax,ss and AUC24,ss) versus the reference regimen ([1]; Formulation C5-12, point estimate and 90% confidence interval for the GMR within 0.80-1.25): bioequivalent
- C24,ss lower than C24,ss (Ctrough) for the reference regimen ([1]; Formulation C5-12 relative to the reference regimen): 29%
- half-life [1, 9]: 6.2 h
- AUC [1, 9]: 8810 ng·h/mL
- concentration at 24 h [1, 9]: 116 ng/mL
- Cmax [1, 9]: 799 ng/mL
- Tmax [1, 9]: 8 h
- half-life [1, 8]: 5.5 h
- AUC [1, 8]: 9770 ng·h/mL
- concentration at 24 h [1, 8]: 162 ng/mL
- Cmax [1, 8]: 879 ng/mL
- Tmax [1, 8]: 4 h
- AUC24, RATIO [2, 10]: 0.88
- C24, RATIO [2, 10]: 0.63
- Cmax, RATIO [2, 10]: 0.95
- Tmax ([2]; human, in vivo, oral, 3 Formulation C5-12 tablets daily, three Formulation C5-12 tablets daily for 14 days, non-fasting, Day 1, N = 14): 9 h
- AUC ([2]; human, in vivo, oral, 3 Formulation C5-12 tablets daily, three Formulation C5-12 tablets daily for 14 days, non-fasting, Day 1, N = 14, read-out: AUC24, geometric mean): 13600 ng·h/mL
- concentration at 24 h ([2]; human, in vivo, oral, 3 Formulation C5-12 tablets daily, three Formulation C5-12 tablets daily for 14 days, non-fasting, Day 1, N = 14, read-out: C24, geometric mean): 272 ng/mL
- Cmax ([2]; human, in vivo, oral, 3 Formulation C5-12 tablets daily, three Formulation C5-12 tablets daily for 14 days, non-fasting, Day 1, N = 14, read-out: Cmax, geometric mean): 1320 ng/mL
- Tmax [2, 11]: 9.4 h
- half-life [2, 11]: 5.9 h
- AUC ([2]; human, in vivo, oral, 3 Formulation C5-12 tablets daily, three Formulation C5-12 tablets daily for 14 days, non-fasting, Day 14, N = 14, read-out: AUC24, geometric mean): 12000 ng·h/mL
- concentration at 24 h ([2]; human, in vivo, oral, 3 Formulation C5-12 tablets daily, three Formulation C5-12 tablets daily for 14 days, non-fasting, Day 14, N = 14, read-out: C24, geometric mean): 172 ng/mL
- Cmax ([2]; human, in vivo, oral, 3 Formulation C5-12 tablets daily, three Formulation C5-12 tablets daily for 14 days, non-fasting, Day 14, N = 14, read-out: Cmax, geometric mean): 1250 ng/mL
- C24, arithmetic mean, % CV [2, 12]: (210,61) ng/mL
- β [2, 12]: 0.117 h⁻¹
- half-life ([3]; 3 film-coated Formulation C5-12 tablets, Regimen A (C5-12): three film-coated Formulation C5-12 tablets, N = 172): 6.91 h
- AUC(0-t) ([3]; 3 film-coated Formulation C5-12 tablets, Regimen A (C5-12): three film-coated Formulation C5-12 tablets, N = 172, read-out: AUCt, geometric mean): 12700 ng·h/mL
- AUC(0-inf) ([3]; 3 film-coated Formulation C5-12 tablets, Regimen A (C5-12): three film-coated Formulation C5-12 tablets, N = 172, read-out: AUC∞, geometric mean): 12900 ng·h/mL
- Tmax ([3]; 3 film-coated Formulation C5-12 tablets, Regimen A (C5-12): three film-coated Formulation C5-12 tablets, N = 172, read-out: Tmax, first value (geometric mean)): 8 h
- half-life ([3]; Regimen B (reference regimen): two Triple Tablets + one Single Tablet morning, one Single Tablet evening, N = 171): 5.8 h
- AUC(0-t) ([3]; Regimen B (reference regimen): two Triple Tablets + one Single Tablet morning, one Single Tablet evening, N = 171, read-out: AUCt, geometric mean): 14800 ng·h/mL
- AUC(0-inf) ([3]; Regimen B (reference regimen): two Triple Tablets + one Single Tablet morning, one Single Tablet evening, N = 171, read-out: AUC∞, geometric mean): 14900 ng·h/mL
- Tmax ([3]; Regimen B (reference regimen): two Triple Tablets + one Single Tablet morning, one Single Tablet evening, N = 171, read-out: Tmax, first value (geometric mean)): 4 h
- Cmax ([3]; 3 film-coated Formulation C5-12 tablets, Regimen A (C5-12): three film-coated Formulation C5-12 tablets, N = 172, read-out: Cmax, geometric mean): 1060 ng/mL
- Cmax ([3]; Regimen B (reference regimen): two Triple Tablets + one Single Tablet morning, one Single Tablet evening, N = 171, read-out: Cmax, geometric mean): 1030 ng/mL
- % Released ([4]; 1 hour, 900 mL 0.05 M sodium phosphate buffer pH 6.8, 15 mM cTAB, USP Apparatus 2, 100 RPM, 37 °C): 1%
- mg Released ([4]; 1 hour, pH 6.8 buffer, 15 mM cTAB): 2.3 mg
- % Released [4, 13]: 11%
- mg Released [4, 13]: 25.7 mg
- % Released [4, 14]: 18%
- mg Released [4, 14]: 42.0 mg
- % Released [4, 15]: 25%
- mg Released [4, 15]: 58.3 mg
- % Released [4, 16]: 39%
- mg Released [4, 16]: 91.0 mg
- % Released [4, 17]: 51%
- mg Released [4, 17]: 119.0 mg
- % Released [4, 18]: 70%
- mg Released [4, 18]: 163.3 mg
- % Released [4, 19]: 81%
- mg Released [4, 19]: 189.0 mg
- Permeability [5]: good permeability
- Solubility ([6]; aqueous): low solubility
- Solubility in the gastrointestinal tract ([6]; free acid of Compound 4): poor solubility
- half-life [7, 20]: 6.4 h
- AUC(0-t) [7, 20]: 18400 ng·h/mL
- AUC(0-inf) [7, 20]: 18600 ng·h/mL
- Tmax [7, 20]: 9.7 h
- half-life [7, 21]: 5.5 h
- AUC(0-t) [7, 21]: 18200 ng·h/mL
- AUC(0-inf) [7, 21]: 18400 ng·h/mL
- Tmax [7, 21]: 3.1 h
- concentration at 24 h [7, 20]: 290 ng/mL
- Cmax [7, 20]: 1350 ng/mL
- concentration at 24 h [7, 21]: 361 ng/mL
- Cmax [7, 21]: 1240 ng/mL
